This note sets out measurements from PubChem BioAssay AID463199 (Broad Institute, 2010).

Molecules are shown by their SMILES. Active and inactive are the calls of the source.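 The calls were made as follows: active = AC50, the dose giving half-maximal effect, exceeds a fixed cutoff for a compound that rescues yeast growth under heat; inactive = the rest, inconclusive results apart.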

In the experiment the test system is S. cerevisiae Burl-1 ts mutant growth, BacTiter-Glo, 38.5C 24 h. Put plainly: growth induction of Burl-1 ts yeast mutant, dose response, counter-screen for SUMOylation pathway inhibitor project, whole organism, S. cerevisiae, luminescence (AID 463199).
`O=C(COc1cnc2ccccc2n1)NCCC1=CCCCC1`: the AC50 was > 42 µM (inactive).

On to `CCS(=O)(=O)N1CCCC(C(=O)NCc2cccnc2)C1` (stereo unspecified), for which the AC50 is > 42 µM (inactive). The result for `COc1cccc(-c2ocnc2C(=O)Nc2ccc3c(c2)CCC3)c1` reads > 42 µM (inactive); that for `CCOC(=O)C(C)(C)Sc1nc2c(cnn2-c2ccc(C)cc2)c(=O)[nH]1`, > 42 µM (inactive); that for `CC(=O)C1(c2ccccc2)CCNCC1`, > 21 µM (inactive).

In the case of `CCN1CCCC(NC(=O)c2scc3c2CCCC3)C1` (stereo unspecified), the AC50 was > 42 µM (inactive). The result for `CC1=Nc2ccc(C)cc2N(Cc2ccccc2)C(=O)C1` reads > 42 µM (inactive); that for `Cc1[nH]c2ccccc2c1/C=N/NC(=O)c1cccc(Br)c1`, > 42 µM (inactive). The result for `CN(C)S(=O)(=O)c1cccc(NC(=O)COc2nc3ccccc3nc2N2CCOCC2)c1` reads > 42 µM (inactive); that for `COC(=O)C1CN(C#N)N(c2ccc(Cl)cc2)C12c1ccccc1-c1ccccc12` (stereo unspecified), > 42 µM (inactive); that for `COc1ccc(C(=O)Nc2ccccc2C(=O)NCCN2CCOCC2)cc1OC`, > 42 µM (inactive).

With `CCCCNS(=O)(=O)c1ccc2c(c1)oc(=O)n2CC(=O)OCC`, the AC50 was > 42 µM (inactive).

For the compound `COc1ccc(NC(=O)CN2C(=O)c3ccccc3S2(=O)=O)cc1OC`, the AC50 was > 42 µM (inactive). The result for `CCn1c(SCC(=O)NC2CCCCC2)nnc1C(C)NC(=O)c1ccccc1F` (stereo unspecified) reads > 42 µM (inactive); that for `O=C(O)c1cccc(N2C(=O)C3C4C=CC(C4=C(c4ccccc4)c4ccccc4)C3C2=O)c1` (stereo unspecified), > 42 µM (inactive); that for `COCCCn1c2nc3ccccc3nc2c2c(=O)n(Cc3ccc(Cl)cc3)cnc21`, > 42 µM (inactive). The result for `O=C(NCCNc1ccc(Cl)cc1[N+](=O)[O-])c1ccccc1F` reads > 42 µM (inactive); that for `CN(C)c1ccc(CN(Cc2ccco2)C(=O)c2ccco2)cc1`, > 42 µM (inactive); that for `COc1ccc(C2C(C(C)=O)=C(O)C(=O)N2CCO)c(OC)c1` (stereo unspecified), > 42 µM (inactive).

As to `O=S(=O)(Cc1ccccc1)NCc1ccccn1`, the AC50 is > 42 µM (inactive).

Consider `Clc1ccc(CSc2nnc(CN3CCOCC3)n2-c2ccccc2)cc1Cl`, for which the AC50 was > 42 µM (inactive). Next, `COc1cc(C(c2c(C)[nH][nH]c2=O)c2c(C)[nH][nH]c2=O)cc(OC)c1OC`: > 42 µM (inactive). In the case of `CCOC(=O)N1CCN(S(=O)(=O)c2ccc(Br)s2)CC1`, the AC50 was > 42 µM (inactive). The result for `O=C1N=C(N2CCOCC2)S/C1=C\c1cccnc1` reads > 42 µM (inactive). Next, `Nc1cc(=O)[nH]c(=O)n1CCc1ccccc1`: > 42 µM (inactive). The result for `O=C(CCc1ccccc1)NNC(=O)c1ccc(Br)cc1` reads > 42 µM (inactive); that for `O=C1CN(C(=O)COC(=O)c2ccccc2NCc2ccco2)c2ccccc2N1`, > 42 µM (inactive). Regarding `O=C(CSc1cccc2cccnc12)Nc1cc(C(=O)O)cc(C(=O)O)c1`, the AC50 is > 42 µM (inactive). The result for `Nc1cc(Cl)ccc1N1CCOCC1` reads > 42 µM (inactive); that for `N=c1c[n+](C2CCCCC2)[n-]o1`, > 42 µM (inactive); that for `c1ccc(C(c2ccccc2)N2CCN(C(c3ccccn3)c3nnnn3C3CCCC3)CC2)cc1` (stereo unspecified), > 42 µM (inactive). The result for `CCOc1ccc2nc(C(C)O)[nH]c2c1` (stereo unspecified) reads > 42 µM (inactive). The result for `O=C1C2CCCCN2C(=O)N1CCCCN1CCN(c2ccccc2Oc2ccccc2)CC1` (stereo unspecified) reads > 42 µM (inactive); that for `CN(C(=S)NC1=CCS(=O)(=O)C1)C1CCCCC1`, > 42 µM (inactive). As for `O=C(CSCc1ccc(Cl)cc1)N1CCCCC1`, the AC50 was > 42 µM (inactive). Next, `Clc1cnc(Oc2ccc(Oc3ncc(Cl)cc3Cl)cc2)c(Cl)c1`: > 42 µM (inactive). Next, `C=C(C)C(=O)Nc1cccnc1Oc1ccc(F)cc1F`: > 42 µM (inactive). Next, `CCNc1nc(NCC)nc(SCCOC(=O)Nc2ccccc2)n1`: > 42 µM (inactive). Take `Cc1ccc(S(=O)(=O)NC2CCCCCCC2)cc1`: the AC50 was > 42 µM (inactive). Next, `COc1cc(CNCCN2CCOCC2)ccc1OCc1ccccc1Cl`: > 42 µM (inactive); `O=C(CSc1ncn[nH]1)Nc1cccc(S(=O)(=O)N2CCCCCC2)c1`: > 42 µM (inactive); `O=C(CCNC(=O)c1ccc(Br)cc1)NCc1ccccc1F`: > 42 µM (inactive). Next, `CCC(=O)Nc1ccc(Br)c(Cl)c1`: > 42 µM (inactive); `CS(=O)(=O)N(CC(=O)N1CCN(c2ccccc2F)CC1)C1CCCCC1`: > 42 µM (inactive); `CC12CCC(=O)N1C(C(=O)Nc1ccccc1F)CS2` (stereo unspecified): > 42 µM (inactive).

In the case of `COc1ccc2oc(=O)c(C(=O)NCc3ccco3)cc2c1`, the concentration at half-maximal activity (AC50) is 15.5 µM.

With `CCCCn1c(=O)[nH]c(=O)c2c1nc(COc1ccc(C#N)cc1)n2CCC`, the AC50 is > 42 µM (inactive).

With `CCOC(=O)CNC(=O)c1c(C)nn(C)c1Cl`, the AC50 is > 42 µM (inactive). The result for `Cc1ccc(NS(=O)(=O)c2ccc(NC(=O)C3CCCO3)cc2)cc1` (stereo unspecified) reads > 42 µM (inactive). Next, `NC(=O)c1ccccc1NC(=O)c1ccc2c(c1)OCO2`: > 42 µM (inactive); `Cc1ccc2c(c1)N(CC(=O)NCCCN1CCN(C)CC1)C(=O)CO2`: > 42 µM (inactive). Regarding `Cn1c(=O)c2c(nc(N/N=C/c3ccc(OC(=O)c4ccco4)cc3)n2Cc2ccccc2Cl)n(C)c1=O`, the AC50 was > 42 µM (inactive). Next, `O=C(NC1CCCC1)C(c1cccs1)N(C(=O)c1ccno1)c1ccccc1` (stereo unspecified): > 42 µM (inactive); `Cc1nn(CC(N)=O)c(=O)c2ccccc12`: > 42 µM (inactive); `CCOc1ccc(CCN2CN(C3CCCCC3)CNC2=S)cc1OCC`: > 42 µM (inactive). Consider `CN(C)CCCN(Cc1ccccc1)C(=S)Nc1ccc(F)c(Cl)c1`, for which the AC50 is > 42 µM (inactive).

Regarding `CN(C)c1ccnc2sc3c(NCC(O)CO)ncnc3c12` (stereo unspecified), the AC50 was > 42 µM (inactive).

On to `Cc1nc2sc(C(c3ccccc3)N3CCC(O)CC3)c(O)n2n1` (stereo unspecified), for which the AC50 is > 42 µM (inactive).

In the case of `Cc1ccsc1C(=O)NCCc1ccc(S(N)(=O)=O)cc1`, the AC50 is > 42 µM (inactive).

With `O=C(NCC1CCCO1)C1CC(c2ccc(Cl)c(Cl)c2)=NO1` (stereo unspecified), the AC50 is > 42 µM (inactive).

Regarding `CC(C)Sc1ccc(C(=O)Nc2ccc(F)cc2F)cn1`, the AC50 is > 42 µM (inactive).

As to `CC[n+]1c(/C=C(\C)SC)sc2ccccc21`, the AC50 is > 42 µM (inactive). The result for `O=C(COc1cccc2cccnc12)N1CCc2ccccc21` reads > 42 µM (inactive). In the case of `Cc1ccc(S(=O)(=O)N[C@@H](Cc2ccccc2)C(=O)CCl)cc1`, the AC50 is > 42 µM (inactive). The result for `Cc1ccnc(NC(c2cccnc2)c2ccc3cccnc3c2O)c1` (stereo unspecified) reads > 42 µM (inactive); that for `CC(=O)N1CCC2(CC1)CC(=O)c1cc(OCC(=O)N3CCCC3)ccc1O2`, > 42 µM (inactive). Next, `Cc1cc(C)cc(C(=O)NC(CC(N)=O)c2ccc(N3CCC(N4CCCCC4)CC3)c([N+](=O)[O-])c2)c1` (stereo unspecified): > 42 µM (inactive); `COc1ccccc1NC(NC(=O)c1ccco1)C(=O)c1ccccc1` (stereo unspecified): > 42 µM (inactive); `CCCCCCCCCCOC(=O)Cn1c(COc2ccc(OC)cc2)[n+](C)c2ccccc21`: > 42 µM (inactive). For `Cc1ccc(F)cc1NS(=O)(=O)c1ccc(Cl)s1`, the AC50 was > 42 µM (inactive).

Turning to `CC(=O)CSc1ncnc2sc3c(c12)CCCC3`, the AC50 is > 42 µM (inactive). Next, `Cc1c(NC(=O)c2ccc(N(C)S(C)(=O)=O)cc2)c(=O)n(-c2ccccc2)n1C`: > 42 µM (inactive); `COc1ccc(C2=C(N)c3ccccc3C2=O)cc1`: > 42 µM (inactive); `CN(C)c1ccc(/C=C/c2cccc[n+]2[O-])cc1`: > 42 µM (inactive).

With `Cn1cc(C(=O)N2CCCC(Nc3ccc(F)cc3)C2)c2ccccc21` (stereo unspecified), the AC50 was > 42 µM (inactive). Next, `CC1(C)Cc2nc3sc4c(OCc5ccccc5)ncnc4c3cc2CO1`: > 42 µM (inactive).

On to `N#Cc1c(Cn2cncn2)nc(=O)n(-c2ccc(Cl)cc2)c1N`, for which the AC50 is > 42 µM (inactive). Next, `CC(C)Cc1nc(N2CCOCC2)c(C#N)c2c1CCC2`: > 42 µM (inactive). Turning to `NS(=O)(=O)c1ccc(CCNC(=O)c2ccc([N+](=O)[O-])s2)cc1`, the AC50 was > 42 µM (inactive). The result for `O=C(/C=C/c1cccc([N+](=O)[O-])c1)NCCSCc1ccc(Cl)cc1Cl` reads > 42 µM (inactive); that for `COc1ccc(C(=O)CSc2nnc3ccc(-c4ccccn4)nn23)cc1`, > 42 µM (inactive).

As to `O=C(Nc1ccccc1N1CCOCC1)c1cc(Br)c(Br)s1`, the AC50 was > 42 µM (inactive). Next, `COCCN1C(=O)/C(=C/c2cc3c(cc2Br)OCO3)NC1=S`: > 42 µM (inactive); `Cc1nn(-c2ccccc2)c(N)c1N=Nc1cccc(S(=O)(=O)N2CCOCC2)c1`: > 42 µM (inactive). Next, `CCN=C1S/C(=C/c2ccc(-c3ccc(F)cc3)o2)C(=O)N1CC`: > 42 µM (inactive); `CCOc1cc(C(=S)N2CCOCC2)ccc1OC(=O)c1ccc(C)cc1`: > 42 µM (inactive); `Cc1sc(NC(=O)CSC2=NCCS2)nc1-c1ccccc1`: > 42 µM (inactive). Consider `COc1ccc(/C=N/NC(=O)CCC(=O)Nc2ccccc2)cc1OC`, for which the AC50 was > 42 µM (inactive). The result for `COc1ccccc1/C=C/C(=O)c1c2c(c(C)[nH]c1=O)CCCC2` reads > 42 µM (inactive); that for `O=[N+]([O-])c1cccc(-c2nc3ccc([N+](=O)[O-])cc3[nH]2)c1`, > 42 µM (inactive); that for `C=CCn1c(-c2ccc(OC)cc2)nc2ccccc21`, > 42 µM (inactive).
